Laboratory results from article PMC12772033, “A drought stress-responsive metabolite malate modulates stomatal responses through G-protein-dependent pathway in grapevine and Arabidopsis” (Molecular Horticulture, 2026).
Where a name gives a salt, the structure may show the parent alone.

What was measured:
VvSLAC1 [1] = target: T1, VvSLAC1 (Vitis vinifera, UniProt A0ABY9BHH9, F440A); experiment: two-electrode voltage clamp, Xenopus oocytes; format: cell-based; settings: activator of open-gate mutant
T1 construct: gene VitviT2T_002114; cDNA in pNB1u, cRNA expressed in Xenopus laevis oocytes; no tag mentioned; model trimmed 1-141 and 507-553
T1 sequence (A0ABY9BHH9 entry or part of it F440A): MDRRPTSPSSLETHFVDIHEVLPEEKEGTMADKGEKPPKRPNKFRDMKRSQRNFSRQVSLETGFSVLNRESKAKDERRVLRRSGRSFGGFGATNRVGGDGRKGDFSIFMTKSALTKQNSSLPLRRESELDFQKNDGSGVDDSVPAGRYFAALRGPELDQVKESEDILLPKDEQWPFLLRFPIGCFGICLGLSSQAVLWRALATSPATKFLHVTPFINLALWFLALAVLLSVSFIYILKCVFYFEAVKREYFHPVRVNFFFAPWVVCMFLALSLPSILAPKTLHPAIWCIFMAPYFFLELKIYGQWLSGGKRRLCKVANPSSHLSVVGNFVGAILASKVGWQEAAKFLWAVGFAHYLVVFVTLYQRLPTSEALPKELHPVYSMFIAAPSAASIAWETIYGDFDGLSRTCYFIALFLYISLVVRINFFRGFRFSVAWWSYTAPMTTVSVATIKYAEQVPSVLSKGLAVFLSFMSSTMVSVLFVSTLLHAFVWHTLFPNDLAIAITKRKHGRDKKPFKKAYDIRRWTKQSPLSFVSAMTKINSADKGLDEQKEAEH

VvSLAC1 [2] = target: T1, VvSLAC1; experiment: two-electrode voltage clamp, ramp mode, Xenopus oocytes; format: cell-based; settings: activator of open-gate mutant, pH 5.6, 1 mM LaCl3, ramp +60 to -120 mV
[3] = pH 5.6, 1 mM LaCl3, -120 mV gap-free and I-V steps

Row | SMILES | relative current at 10 mM (VvSLAC1 [1]; [3]) | other results
1 | O=C(O)CC(=O)C(=O)O [Oxal, oxalacetate] |  | relative current at 10 mM (VvSLAC1 [1]; pH 5.6, 1 mM LaCl3, -120 mV gap-free): Dicarboxylates, however, promoted the activity of VvSLAC1F440A.
2 | O=C(O)C[C@H](O)C(=O)O [Mal, malate] | Dicarboxylates, however, promoted the activity of VvSLAC1F440A. | 
3 | O=C(O)CC(O)(CC(=O)O)C(=O)O [Cit, citrate] |  | current at 10 mM (VvSLAC1 [2]): The metabolites other than monocarboxylates activated VvSLAC1F440A.
4 | O=C(O)/C=C/C(=O)O [Fum, fumarate] | Dicarboxylates, however, promoted the activity of VvSLAC1F440A. | 
